Experimental data as given in patent US5597835A, “Acyl CoA:cholesterol acyltransferase inhibitors” (Korea Institute of Science and Technology, priority 1993, dated 1997).

What was measured:
[1] = target: T1, acyl CoA:cholesterol acyltransferase (ACAT) (Rattus norvegicus, UniProt Q7TQM4); test: ACAT inhibiting activity (modified method of Tabas et al.; [1-14C] oleoyl-CoA, rat liver microsomal enzyme); format: biochemical; conditions: 10 μM [1-14C] oleoyl-CoA, pH 7.4, 37° C., 15 minutes, read-out: IC50 (inhibitor concentration which reduces the activity of ACAT by 50%)
T1 construct: microsomal enzyme (10 mg/ml of protein) derived from rat liver tissue; from tissue; host or cells: rat liver microsomes
T1 sequence (Q7TQM4 1-524): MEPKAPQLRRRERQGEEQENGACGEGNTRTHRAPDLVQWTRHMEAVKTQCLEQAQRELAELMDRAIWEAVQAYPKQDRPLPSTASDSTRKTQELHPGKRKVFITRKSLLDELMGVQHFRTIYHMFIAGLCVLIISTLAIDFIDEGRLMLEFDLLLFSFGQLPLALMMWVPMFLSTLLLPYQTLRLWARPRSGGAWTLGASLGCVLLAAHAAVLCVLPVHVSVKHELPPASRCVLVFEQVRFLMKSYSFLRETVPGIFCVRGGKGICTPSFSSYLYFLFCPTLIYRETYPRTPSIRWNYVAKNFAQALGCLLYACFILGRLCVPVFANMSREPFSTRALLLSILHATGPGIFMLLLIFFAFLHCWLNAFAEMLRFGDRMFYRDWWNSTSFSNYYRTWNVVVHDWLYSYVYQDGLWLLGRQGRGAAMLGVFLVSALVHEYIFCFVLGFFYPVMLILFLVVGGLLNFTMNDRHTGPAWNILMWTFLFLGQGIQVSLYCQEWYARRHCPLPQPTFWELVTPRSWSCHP
Protocol: ACAT activity was determined as follows in accordance with a modified method of Tabas et al. described in J. Biol. Chem., 261, 3147-3154 (1986).
10 μl of sample, 4.0 μl of microsomal enzyme (10 mg/ml of protein) derived from rat liver tissue, 20 μl of analysis buffer(0.5M KH2 PO4, 10 mM dithiothreitol (DTT), pH 7.4), 15 μl of 40 mg/ml bovine serum albumin(essentially free of fatty acids), 2 μl of 20 mg/ml cholesterol and 41 μl of H2 O were mixed together and the resulting mixture was reacted at 37° C. for 15 minutes. 8 μl of [1-^14 C] oleoyl-CoA(0.05 μCi, final concentration of 10 μM) was added to the mixture and the reaction mixture was reacted at 37° C. for 15 minutes.
1 ml of isopropanol-heptane (4:1(v/v)) was added to the mixture to stop the reaction, 0.6 ml of heptane and 0.4 ml of said analysis buffer(5-fold diluted) were added thereto and the resulting mixture was centrifuged at 2,000 g for 2 minutes to obtain the supernatant.
5 ml of scintillation cocktail lipoluma (Lumac Co., U.S.A.) was added to 100 μl of the supernatant obtained above and enzyme activity was determined by detecting the amount of cholesteryl ester in the mixture based on the unit of count per minute (CPM) by using a liquid scintillation counter.
ACAT inhibiting activity was calculated in accordance with the following equation: [formula] wherein the blank composition had the same composition as the above sample but without enzyme and GERI-BP001 or its derivatives, and was reacted at 37° C.; and the control had the same composition as the above sample without GERI-BP001 or its derivatives and was reacted at 37° C. for 15 min.

[2] = Solubility (physicochemical properties)
rats = test: Acute toxic effect in rats; format: in vivo, rat; conditions: dose and route not stated
female ICR mice = test: Toxicity of GERI-BP001 in mice (subcutaneous injection); format: in vivo, mouse; conditions: 500 mg/kg
Protocol: 5 female ICR mice weighing 23 g were administered via subcutaneous injection with 500 mg/kg of GERI-BP001.

CC(=O)O[C@H]1CC[C@]2(C)[C@H]3Cc4c(cc(-c5ccc[n+]([O-])c5)oc4=O)O[C@]3(C)CC[C@H]2C1(C)C [GERI-BP001-C]
IC50 [1]: 110 to 120 µM

CCC(=O)O[C@H]1CC[C@]2(C)[C@H]3Cc4c(cc(-c5cccnc5)oc4=O)O[C@]3(C)CC[C@H]2C1(C)C [GERI-BP001-B]
IC50 [1]: 70 to 80 µM

CC(=O)O[C@H]1CC[C@]2(C)[C@H]3Cc4c(cc(-c5cccnc5)oc4=O)O[C@]3(C)CC[C@H]2C1(C)C [GERI-BP001]
Solubility ([2]; MeOH, CHCl3): soluble | Solubility ([2]; n-hexane, H2O): insoluble | IC50 [1]: 70 to 80 µM | acute toxic effect (rats): acute toxic effect was not found | acute toxicity (judgement) (female ICR mice; female ICR mice, subcutaneous injection): does not cause acute toxicity | mortality (female ICR mice; female ICR mice, subcutaneous injection, until 4 days after administration): none of the mice was dead | activities of mice (female ICR mice; mouse, in vivo, sc): increased | excited state (female ICR mice; mouse, in vivo, sc): an excited state was induced | time after administration at which excited state was induced (female ICR mice; mouse, in vivo, sc): about 15 minutes | time after administration at which symptoms disappeared (female ICR mice; mouse, in vivo, sc): about 2 hours

CC(=O)O[C@H]1CC[C@]2(C)[C@H]3C(O)c4c(cc(-c5cccnc5)oc4=O)O[C@]3(C)CC[C@H]2C1(C)C (stereo partly shown) [GERI-BP001-A]
IC50 [1]: 140 to 150 µM
